Source: patent EP3171885B1, “PEPTIDE HYDROLYSATE OF SNAILS, PEPTIDE FRACTIONS, PRODUCTION METHOD, USE AND COMPOSITIONS FOR INHIBITING THE ANGIOTENSIN CONVERTING ENZYME” (Drevet, Pascal, priority 2014, dated 2016)
Where two headings read alike, the source gives them in different places. Where a SMILES comes first, the peptide text is derived from it.

Target: enzyme de conversion de l'angiotensine (ECA) (Homo sapiens, UniProt P12821)
Experiment: biochemical
Method: Brièvement, cette méthode repose sur l'hydrolyse du substrat Hippuryl-L-Histidyl-L-Leucine (HHL) par l'ECA pour produire de l'acide hippurique (HA) et de l'Histydil-Leucine. Après incubation à 37°C pendant 30 minutes dans du tampon borate de sodium pH 8,3, la réaction est arrêtée par addition de HCI. La séparation du substrat HHL et du produit HA est réalisé par chromatographie liquide haute pression en phase inversée (RP-HPLC) sur une colonne C18 (Kinetex). L'élution se fait par un mélange d'eau (75% v/v) et d'acétonitrile (25% V/V).
La comparaison entre la concentration de HA produite pour chaque concentration d'échantillon avec celle obtenue sans addition de peptide permet la détermination de l'IC50.
A titre de témoin positif, le captopril est également testé en parallèle de l'hydrolysat, des fractions et des peptides. Le témoin négatif est le substrat HHL seul, sans ECA, dilué dans du tampon borate pH 8,3. L'échantillon est le peptide, la fraction ou l'hydrolysat total à tester.
Le pourcentage d'inhibition de l'ECA est calculé selon la formule suivante : Pourcentage d'inhibition ECA (%) = (ASCHA ([…])−ASCHA (Echantillon))/(ASCHA ([…])−ASCHA (HHL)) × 100 [formula]

[1] = substrate HHL 5 mM, 37°C, 30 minutes, sodium borate buffer pH 8,3, detection at 228 nm, read-out: IC50 (converted)

Chain of enzyme de conversion de l'angiotensine (ECA) (P12821 30-1306): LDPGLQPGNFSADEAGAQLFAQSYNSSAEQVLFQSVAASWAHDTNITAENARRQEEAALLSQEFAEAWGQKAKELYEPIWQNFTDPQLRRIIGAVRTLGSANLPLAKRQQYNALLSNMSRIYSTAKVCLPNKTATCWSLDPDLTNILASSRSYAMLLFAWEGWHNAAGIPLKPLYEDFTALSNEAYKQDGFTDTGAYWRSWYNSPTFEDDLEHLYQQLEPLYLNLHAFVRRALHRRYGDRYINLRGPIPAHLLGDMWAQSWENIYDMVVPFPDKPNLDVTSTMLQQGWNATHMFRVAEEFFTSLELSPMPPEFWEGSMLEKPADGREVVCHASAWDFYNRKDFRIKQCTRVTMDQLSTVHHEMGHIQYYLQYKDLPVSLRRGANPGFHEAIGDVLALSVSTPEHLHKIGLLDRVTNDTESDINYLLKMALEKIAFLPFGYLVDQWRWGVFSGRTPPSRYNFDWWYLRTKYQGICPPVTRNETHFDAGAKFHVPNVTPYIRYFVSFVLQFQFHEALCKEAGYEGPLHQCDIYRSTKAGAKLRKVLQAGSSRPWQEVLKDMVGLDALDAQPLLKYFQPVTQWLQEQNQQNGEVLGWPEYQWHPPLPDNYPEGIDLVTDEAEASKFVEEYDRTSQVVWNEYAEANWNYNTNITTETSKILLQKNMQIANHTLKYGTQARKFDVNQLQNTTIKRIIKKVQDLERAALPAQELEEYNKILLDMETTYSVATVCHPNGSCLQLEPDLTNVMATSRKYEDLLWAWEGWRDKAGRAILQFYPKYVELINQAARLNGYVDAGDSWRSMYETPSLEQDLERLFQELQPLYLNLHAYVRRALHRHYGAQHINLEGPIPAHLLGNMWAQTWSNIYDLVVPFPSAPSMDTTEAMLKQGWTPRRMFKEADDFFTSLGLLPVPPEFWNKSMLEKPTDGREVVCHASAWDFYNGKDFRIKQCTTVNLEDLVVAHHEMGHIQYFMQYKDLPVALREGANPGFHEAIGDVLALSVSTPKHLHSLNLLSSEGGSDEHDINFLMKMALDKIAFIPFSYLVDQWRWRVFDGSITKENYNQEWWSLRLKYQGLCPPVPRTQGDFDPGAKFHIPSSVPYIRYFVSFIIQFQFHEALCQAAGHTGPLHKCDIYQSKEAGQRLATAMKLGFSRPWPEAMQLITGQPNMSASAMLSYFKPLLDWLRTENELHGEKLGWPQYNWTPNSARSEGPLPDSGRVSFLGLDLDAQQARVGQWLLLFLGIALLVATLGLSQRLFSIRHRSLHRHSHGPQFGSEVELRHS

N[C@@H](CC(=O)O)C(=O)N[C@@H](Cc1ccccc1)C(=O)O [DF, Acide Aspartique -Phénylalanine] (H-Asp-Phe-OH)
IC50 [1]: 1280 µM

N[C@@H](CO)C(=O)N[C@@H](Cc1ccccc1)C(=O)O [SF, Serine-Phénylalanine]
IC50: 516 µM

CC(C)[C@H](N)C(=O)N[C@@H](Cc1ccc(O)cc1)C(=O)O [VY, Valine-Tyrosine] (H-Val-Tyr-OH)
IC50 [1]: 40.3 µM
